Measured values published in patent US7655453B2, “Recombinant Candida rugosa lipases” (Academia Sinica, priority 2001, dated 2010).

What was measured:
Assay type in all cases: biochemical
[1] = system: Candida rugosa lipase 4 chimera Trx-LIP4/lid2 (lid region residues 63-94 of LIP4 exchanged with that of LIP2; thioredoxin fusion); test: Kinetic parameters of hydrolysis of cholesteryl linoleate by Trx-LIP4/lid2; settings: 37° C., pH 7.0; Trx-LIP4/lid2 86 nM; average of three independent experiments
Source text: (§1) Construction of expression vectors The E. coli expression vectors pET23a-LIP4-S19 and pET23a-trx-LIP4-S19 were constructed as described in Tang et al. (2000) Protein Exp. Purif. 20: 308-313. Open-reading frames of LIP1, LIP2, LIP3, and LIP5 without the leader sequence were obtained by reverse transcription-polymerase chain reaction (RT-PCR). See Longhi et al. (1992) Biochim. Biophy. […] The chimeric DNA sequences were constructed by replacing the SphI(184)-BstXI(304) restriction DNA fragment of LIP4 with the corresponding fragments of LIP1, LIP2, LIP3, or LIP5, respectively. The resulting sequences encode mature chimeric C. rugosa lipases, denoted as TrX-LIP4/lid1, TrX-LIP4/lid2, TrX-LIP4/lid3, and TrX-LIP4/lid5, and were confirmed by DNA sequencing.
(§2) Preparation of recombinant LIP4 from E. coli. E. coli strain AD494(DE3) (Novagen, Milwaukee, Wis.) harboring recombinant plasmid was grown overnight at 37° C. in Luria-Bertani (LB) broth supplemented with 50 μg/mL ampicillin and 15 μg/mL kanamycin. The cells were then diluted 20-fold into fresh medium and incubated with shaking at 25° C. After adding IPTG to give a final concentration of 0.05 mM, the cells were incubated at 10° C. until OD600 reached 1.0.
(§3) Purification of recombinant LIP4. After induction, the AD494(DE3) transformants were harvested by centrifugation at 4000 g and 4° C. for 10 min. […]

[2] = system: Candida rugosa lipase 4 chimera Trx-LIP4/lid3 (lid region residues 63-94 of LIP4 exchanged with that of LIP3; thioredoxin fusion); test: Kinetic parameters of hydrolysis of cholesteryl linoleate by Trx-LIP4/lid3; settings: 37° C., pH 7.0; Trx-LIP4/lid3 58 nM; average of three independent experiments
Source text: as §1, §2, §3

[3] = system: Candida rugosa lipase 4 chimera Trx-LIP4/lid1 (lid region residues 63-94 of LIP4 exchanged with that of LIP1; thioredoxin fusion); test: Kinetic parameters of hydrolysis of cholesteryl linoleate by Trx-LIP4/lid1; settings: 37° C., pH 7.0; Trx-LIP4/lid1 11 nM; average of three independent experiments
Source text: as §1, §2, §3

[4] = system: Candida rugosa lipase 4 chimera Trx-LIP4/lid5 (lid region residues 63-94 of LIP4 exchanged with that of LIP5; thioredoxin fusion); test: Kinetic parameters of hydrolysis of cholesteryl linoleate by Trx-LIP4/lid5; settings: 37° C., pH 7.0; Trx-LIP4/lid5 66 nM; average of three independent experiments
Source text: as §1, §2, §3

[5] = biological target: Candida rugosa lipase 4 (LIP4), native, recombinant (Diutina rugosa, UniProt P32948); test: Kinetic parameters of hydrolysis of cholesteryl linoleate by LIP4; settings: 37° C., pH 7.0; LIP4 39 nM; average of three independent experiments
Source text: as §1, §2, §3

Candida rugosa lipase 4 (LIP4), native, recombinant, sequence (P32948 3-549, looked up, natural form): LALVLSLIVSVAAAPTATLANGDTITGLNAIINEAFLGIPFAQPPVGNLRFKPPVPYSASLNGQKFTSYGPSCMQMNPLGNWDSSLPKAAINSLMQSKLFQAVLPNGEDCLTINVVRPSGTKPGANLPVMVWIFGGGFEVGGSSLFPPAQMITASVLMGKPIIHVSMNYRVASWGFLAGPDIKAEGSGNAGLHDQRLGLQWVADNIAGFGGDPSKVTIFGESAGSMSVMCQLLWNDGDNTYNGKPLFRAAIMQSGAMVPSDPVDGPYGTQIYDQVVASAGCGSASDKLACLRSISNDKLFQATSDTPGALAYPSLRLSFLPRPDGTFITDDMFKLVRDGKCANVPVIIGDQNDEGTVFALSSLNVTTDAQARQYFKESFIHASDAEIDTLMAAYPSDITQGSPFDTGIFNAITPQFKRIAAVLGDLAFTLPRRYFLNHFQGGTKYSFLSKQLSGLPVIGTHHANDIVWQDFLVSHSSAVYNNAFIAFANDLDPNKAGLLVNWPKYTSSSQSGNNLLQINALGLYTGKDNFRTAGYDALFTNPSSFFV

Q: For `CCCCC/C=C\C/C=C\CCCCCCCC(=O)O[C@H]1CC[C@@]2(C)C(=CC[C@H]3[C@@H]4CC[C@H]([C@H](C)CCCC(C)C)[C@@]4(C)CC[C@@H]32)C1` [cholesteryl linoleate], which Km [1] is on record?
A: 74 ± 3 µM

Q: What about the Vmax [1] of the same molecule?
A: 1851 ± 24 10^−3 μmol/min/mg

Q: And the Km [2]?
A: 46 ± 1 µM

Q: And the Vmax [2]?
A: 231 ± 14 10^−3 μmol/min/mg

Q: And the Km [3]?
A: 103 ± 5 µM

Q: And the Vmax [3]?
A: 28 ± 1 10^−3 μmol/min/mg

Q: What about the Km [4] of the same molecule?
A: 34 ± 1 µM

Q: What about the Vmax [4] of the same molecule?
A: 70 ± 4.8 10^−3 μmol/min/mg

Q: And the Km [5]?
A: 41 ± 5 µM
